35 molecules from US9376380B2 (University of Pittsburgh—Of the Commonwealth System of …, priority 2011, dated 2016) can be followed below.

One experiment concerns the target CB2 receptor (Homo sapiens, UniProt P34972). Briefly: [3H]CP-55,940 radioligand competition binding, CB2. Further details: host or cells: cell membrane preparations. The following applies: for SI: selectivity index for CB2: Ki(CB1)/Ki(CB2) ratio. (In general: Displacement assays read how much labelled ligand stays bound in the presence of the test substance.)
A further experiment deals with T1, CB1 receptor (Homo sapiens, UniProt P21554).
T1 construct: host or cells: cell membrane preparations
Briefly: [3H]CP-55,940 radioligand competition binding, CB1.

[1] abbreviates: [3H]CP-55,940 displacement, read-out: Ki (CB2).
[2] abbreviates: [3H]CP-55,940 displacement, read-out: Ki (CB1).

Where two headings read alike, the source gives them in different places. Bounds are passed on as bounds.

T1 sequence (P21554 whole entry): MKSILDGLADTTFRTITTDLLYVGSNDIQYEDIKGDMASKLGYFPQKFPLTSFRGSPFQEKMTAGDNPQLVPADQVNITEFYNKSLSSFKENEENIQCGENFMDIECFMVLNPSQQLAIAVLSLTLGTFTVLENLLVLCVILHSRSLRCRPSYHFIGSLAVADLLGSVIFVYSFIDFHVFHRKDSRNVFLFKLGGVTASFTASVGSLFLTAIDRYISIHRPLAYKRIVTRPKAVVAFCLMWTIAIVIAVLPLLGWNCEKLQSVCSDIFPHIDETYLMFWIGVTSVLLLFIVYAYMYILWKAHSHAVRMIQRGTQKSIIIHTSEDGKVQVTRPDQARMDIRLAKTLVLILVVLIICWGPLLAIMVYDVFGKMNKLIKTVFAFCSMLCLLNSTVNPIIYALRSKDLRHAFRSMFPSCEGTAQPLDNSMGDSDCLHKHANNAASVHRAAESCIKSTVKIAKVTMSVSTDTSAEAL
CB2 receptor, sequence (P34972 whole entry): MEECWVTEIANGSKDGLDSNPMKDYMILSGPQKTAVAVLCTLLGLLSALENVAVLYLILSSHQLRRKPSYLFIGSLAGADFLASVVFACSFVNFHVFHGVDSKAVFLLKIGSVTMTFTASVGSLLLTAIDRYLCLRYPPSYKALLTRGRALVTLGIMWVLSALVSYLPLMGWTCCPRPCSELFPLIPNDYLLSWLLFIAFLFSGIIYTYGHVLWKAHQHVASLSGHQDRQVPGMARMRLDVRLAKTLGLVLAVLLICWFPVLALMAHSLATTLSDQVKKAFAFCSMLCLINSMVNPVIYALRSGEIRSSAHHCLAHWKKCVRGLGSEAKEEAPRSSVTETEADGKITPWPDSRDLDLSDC
Description for CB1 receptor: (§1) Briefly, the bioassay is carried out using the Perkin Elmer 96-well Top Counter. […] The procedure is as follows.
(§2) In competition binding experiments, the tested compound dilutions are carried out in duplicate in TME buffer (25 mM Tris, 5 mM MgCl2, 1 mM EDTA) containing 0.1% (w/v) fatty acid free bovine serum albumin (BSA), pH 7.4. […] TME buffer and cell membrane preparations expressing CB receptors (5 μg per well) are added to a final volume of 200 μL. […] After the binding suspensions are incubated at 30° C. for 1 hr, the reaction is terminated by rapid filtration through microfiltration plates (Unifilter GF/B filterplate, PerkinElmer), followed by 5 washes with ice cold TME buffer containing 0.1% BSA on a Packard Filtermate Harvester (PerkinElmer). The plates are then dried overnight and 30 μl MicroScint 0 scintillation cocktail is added to each well of the dried filter plates. The bound radioactivity is then counted using a Perkin Elmer 96-well TopCounter. […] This assay is used for determination of the binding affinity parameters (Ki) of ligand-receptor interactions for the CB receptor.
Description for CB2 receptor: as §1, §2

Usually Ki stands for a measure of affinity in units of concentration, obtained from inhibition or displacement. In the case of `CCN(CC)c1ccc(CN(C(=O)Cc2ccc(Cl)cc2)c2ccc(C)cc2)cc1` [Compound 98, 2-(4-Chlorophenyl)-N-(4-(diethylamino)benzyl)-N-(p-tolyl)acetamide], the “SI: selectivity index for CB2” value on CB2 receptor came to 29. In addition, the Ki stood at 107 nM at CB2 receptor (setting [1]) and 3200 nM on CB1 receptor (setting [2]).

Turning to `CCN(CC)c1ccc(CN(c2ccc(Cl)cc2)S(=O)(=O)c2ccccc2)cc1` [Compound 81, N-(4-Chlorophenyl)-N-(4-(diethylamino)benzyl)benzenesulfonamide], on CB1 receptor (setting [2]), the Ki amounted to 1770 nM.

As for `CCN(CC)c1ccc(CN(c2ccc(C)cc2)S(=O)(=O)c2ccc(F)cc2)cc1` [Compound 91, N-(4-(Diethylamino)benzyl)-4-fluoro-N-(p-tolyl)benzenesulfonamide], the “SI: selectivity index for CB2” value at CB2 receptor turned out to be 153. For the same molecule, the Ki on CB2 receptor (setting [1]) stood at 5.6 nM; on CB1 receptor (setting [2]), 858 nM.

On to `CCN(CC)c1ccc(CN(C(=O)Cc2ccc(Cl)cc2)C23CC4CC(CC(C4)C2)C3)cc1` [Compound 65, N-((3s,5s,7s)-Adamantan-1-yl)-2-(4-chlorophenyl)-N-(4-(diethylamino)benzyl)acetamide], for which the Ki at CB1 receptor (setting [2]) is more than 20000 nM.

For the molecule `CCN(CC)c1ccc(CN(C(=O)Cc2ccccc2)C23CC4CC(CC(C4)C2)C3)cc1` [Compound 66, N-((3s,5s,7s)-Adamantan-1-yl)-N-(4-(diethylamino)benzyl)-2-phenylacetamide], the “SI: selectivity index for CB2” value on CB2 receptor was more than 333. In addition, the inhibitory constant (Ki) is 60 nM on CB2 receptor (setting [1]) and more than 20000 nM on CB1 receptor (setting [2]).

`CCN(CC)c1ccc(CN(C(=O)C2CCCCC2)c2ccc(Cl)cc2)cc1` [Compound 89, N-(4-Chlorophenyl)-N-(4-(diethylamino)benzyl)cyclohexanecarboxamide]: the “SI: selectivity index for CB2” value at CB2 receptor came to 121. Further, the inhibitory constant (Ki) on CB2 receptor (setting [1]) was 164 nM; on CB1 receptor (setting [2]) it was more than 20000 nM.

In the case of `O=C(Cc1ccccc1)NC(/C=C/c1ccccc1)NC(=O)Cc1ccccc1` [Compound 46, (E)-N,N′-(3-Phenylprop-2-ene-1,1-diyl)bis(2-phenylacetamide)], the inhibitory constant (Ki) on CB1 receptor (setting [2]) is more than 20000 nM.

Consider `CCN(CC)c1ccc(CN(C23CC4CC(CC(C4)C2)C3)S(=O)(=O)c2ccccc2)cc1` [Compound 56, N-((3s,5s,7s)-Adamantan-1-yl)-N-(4-(diethylamino)benzyl)benzenesulfonamide], for which the Ki at CB2 receptor turned out to be 84 nM; on CB1 receptor, 11000 nM.

As to `CCN(CC)c1ccc(CN(C23CC4CC(CC(C4)C2)C3)S(=O)(=O)c2ccc(Cl)cc2)cc1` [Compound 58, N-((3s,5s,7s)-Adamantan-1-yl)-4-chloro-N-(4-(diethylamino)benzyl)benzenesulfonamide], the “SI: selectivity index for CB2” value on CB2 receptor was 11. For the same molecule, the results for the inhibitory constant (Ki) on CB2 receptor (setting [1]) and at CB1 receptor (setting [2]) were 173 nM and 2030 nM, respectively.

Regarding `CCN(CC)c1ccc(CN(c2ccc(C)cc2)S(=O)(=O)c2ccccc2)cc1` [Compound 90, N-(4-(Diethylamino)benzyl)-N-(p-tolyl)benzenesulfonamide], the “SI: selectivity index for CB2” value at CB2 receptor is 151. Besides, the inhibition constant Ki on CB2 receptor (setting [1]) is 3.4 nM; on CB1 receptor (setting [2]), 514 nM.

Regarding `CCN(CC)c1ccc(CN(c2ccc(Cl)cc2)S(=O)(=O)c2ccc(C)cc2)cc1` [Compound 85, N-(4-Chlorophenyl)-N-(4-(diethylamino)benzyl)-4-methylbenzenesulfonamide], the “SI: selectivity index for CB2” value at CB2 receptor was determined as 3.7. For the same molecule, the inhibition constant Ki was determined as 37 nM on CB2 receptor (setting [1]) and 137 nM at CB1 receptor (setting [2]).

In the case of `CCN(CC)c1ccc(CN(c2ccc(Cl)cc2)S(=O)(=O)c2ccc(Cl)cc2)cc1` [Compound 83, 4-Chloro-N-(4-chlorophenyl)-N-(4-(diethylamino)benzyl)benzenesulfonamide], at CB2 receptor, the “SI: selectivity index for CB2” value is reported as 183. The values for the Ki on CB2 receptor (setting [1]) and at CB1 receptor (setting [2]) were 36 nM and 6620 nM, respectively.

For `CCN(CC)c1ccc(C(NC(=O)C(C)C)NC(=O)C(C)C)cc1` [Compound 50, N,N′-((4-(diethylamino)phenyl)methylene)bis(2-methylpropanamide)], the Ki is 2640 nM at CB2 receptor (setting [1]) and more than 20000 nM on CB1 receptor (setting [2]).

Consider `CCN(CC)c1ccc(CN(c2ccc(Cl)cc2)S(=O)(=O)c2ccc(F)cc2)cc1` [Compound 82, N-(4-Chlorophenyl)-N-(4-(diethylamino)benzyl)-4-fluorobenzenesulfonamide], for which, on CB2 receptor, the “SI: selectivity index for CB2” value is listed as 15. In addition, the Ki at CB2 receptor (setting [1]) came to 73 nM; on CB1 receptor (setting [2]), 1130 nM.

With `CCN(CC)c1ccc(CN(c2ccc(C)cc2)S(=O)(=O)c2ccc(C(C)C)cc2)cc1` [Compound 96, N-(4-(Diethylamino)benzyl)-4-isopropyl-N-(p-tolyl)benzenesulfonamide], at CB2 receptor, the “SI: selectivity index for CB2” value is 782. Further, the inhibition constant Ki was determined as 4.3 nM on CB2 receptor (setting [1]) and 3360 nM at CB1 receptor (setting [2]).

With `CCN(CC)c1ccc(CN(C23CC4CC(CC(C4)C2)C3)S(=O)(=O)c2ccc(C)cc2)cc1` [Compound 60, N-((3s,5s,7s)-Adamantan-1-yl)-N-(4-(diethylamino)benzyl)-4-methylbenzenesulfonamide], on CB1 receptor (setting [2]), the Ki is more than 20000 nM.

Turning to `CCN(CC)c1ccc(CN(C(=O)C2CCCCC2)c2ccc(C)cc2)cc1` [Compound 99, N-(4-(Diethylamino)benzyl)-N-(p-tolyl)cyclohexanecarboxamide], the “SI: selectivity index for CB2” value on CB2 receptor came out at 0.9. The inhibition constant Ki on CB2 receptor (setting [1]) worked out at 222 nM; on CB1 receptor (setting [2]), 202 nM.

As for `CCN(CC)c1ccc(CN(c2ccc(C)cc2)S(=O)(=O)c2cccc(C)c2)cc1` [Compound 95, N-(4-(Diethylamino)benzyl)-3-methyl-N-(p-tolyl)benzenesulfonamide], the “SI: selectivity index for CB2” value on CB2 receptor was 37. Also, the inhibition constant Ki on CB2 receptor (setting [1]) stood at 5.8 nM; at CB1 receptor (setting [2]), 218 nM.

For the molecule `Cc1ccc(C(NC(=O)Cc2ccccc2)NC(=O)Cc2ccccc2)cc1` [Compound 8, N,N′-(p-tolylmethylene)bis(2-phenylacetamide)], the figures for the Ki at CB2 receptor (setting [1]) and on CB1 receptor (setting [2]) were 494 nM and 109 nM, respectively.

In the case of `CCN(CC)c1ccc(C(NC(=O)C=Cc2ccccc2)NC(=O)C=Cc2ccccc2)cc1` (stereo not shown) [Compound 48, N,N′-((4-(Diethylamino)phenyl)methylene)bis(3-phenylacrylamide)], the “SI: selectivity index for CB2” value at CB2 receptor is more than 119. The Ki on CB2 receptor (setting [1]) is 167 nM; at CB1 receptor (setting [2]), more than 20000 nM.

Take `O=C(Cc1ccccc1)NC(Cc1ccccc1)NC(=O)Cc1ccccc1` [Compound 44, N,N′-(2-Phenylethane-1,1-diyl)bis(2-phenylacetamide)]: the inhibitory constant (Ki) on CB1 receptor (setting [2]) was more than 20000 nM.

Consider `CCOc1ccc(C(NC(=O)Cc2ccccc2)NC(=O)Cc2ccccc2)cc1` [Compound 11, N,N′-((4-ethoxyphenyl)methylene)bis(2-phenylacetamide)], for which the Ki at CB2 receptor (setting [1]) stood at 1500 nM.

For the molecule `O=C(Cc1ccc(Cl)cc1)NC(NC(=O)Cc1ccc(Cl)cc1)c1ccccc1` [Compound 21, N,N′-(phenylmethylene)bis(2-(4-chlorophenyl)acetamide)], at CB2 receptor (setting [1]), the inhibition constant (Ki) was more than 20000 nM.

As to `CCCCCCCC(=O)N(Cc1ccc(N(CC)CC)cc1)C12CC3CC(CC(C3)C1)C2` [Compound 64, N-((3s,5s,7s)-Adamantan-1-yl)-N-(4-(diethylamino)benzyl)octanamide], the Ki at CB2 receptor (setting [1]) is 638 nM.

As to `O=C(Cc1ccccc1)NC(NC(=O)Cc1ccccc1)c1cccc(F)c1` [Compound 4, N,N′-((3-fluorophenyl)methylene)bis(2-phenylacetamide)], the inhibition constant (Ki) on CB2 receptor (setting [1]) was 12700 nM.

Consider `COc1ccc(C(NC(=O)Cc2ccc(C(F)(F)F)cc2)NC(=O)Cc2ccc(C(F)(F)F)cc2)cc1` [Compound 35, N,N′-((4-methoxyphenyl)methylene)bis(2-(4-(trifluoromethyl)phenyl)acetamide)], for which, at CB2 receptor (setting [1]), the inhibition constant Ki was more than 20000 nM.

With `O=C(Cc1ccc(Cl)cc1)NC(NC(=O)Cc1ccc(Cl)cc1)c1ccc(C(F)(F)F)cc1` [Compound 28, N,N′-((4-(trifluoromethyl)phenyl)methylene)bis(2-(4-chlorophenyl)acetamide)], the “SI: selectivity index for CB2” value on CB2 receptor is listed as more than 198. In addition, the inhibition constant Ki at CB2 receptor (setting [1]) was 101 nM.

In the case of `CCCCCCCN(Cc1ccc(N(CC)CC)cc1)S(=O)(=O)c1cccc(C)c1` [Compound 68, N-(4-(Diethylamino)benzyl)-N-heptyl-3-methylbenzenesulfonamide], the Ki on CB2 receptor (setting [1]) stood at 2300 nM.

With `CCCCCCCN(Cc1ccc(N(CC)CC)cc1)C(=O)Cc1ccc(Cl)cc1` [Compound 77, 2-(4-Chlorophenyl)-N-(4-(diethylamino)benzyl)-N-heptylacetamide], the Ki at CB2 receptor (setting [1]) was found to be 696 nM.

As for `Cc1ccc(C(NC(=O)Cc2ccc(Cl)cc2)NC(=O)Cc2ccc(Cl)cc2)cc1` [Compound 25, N,N′-(p-tolylmethylene)bis(2-(4-chlorophenyl)acetamide)], the “SI: selectivity index for CB2” value at CB2 receptor is recorded as more than 43. The Ki on CB2 receptor (setting [1]) was 462 nM.

Turning to `O=C(Cc1ccccc1)NC(NC(=O)Cc1ccccc1)c1ccc(N2CCCCC2)cc1` [Compound 19, N,N′-((4-(piperidin-1-yl)phenyl)methylene)bis(2-phenylacetamide)], the “SI: selectivity index for CB2” value at CB2 receptor is on record as more than 34. In addition, on CB2 receptor (setting [1]), the Ki came to 595 nM.

On to `CCCCC(=O)NC(NC(=O)CCCC)c1ccc(N(CC)CC)cc1` [Compound 52, N,N′-((4-(diethylamino)phenyl)methylene)dipentanamide], for which the “SI: selectivity index for CB2” value on CB2 receptor is more than 109. Moreover, the inhibition constant Ki on CB2 receptor (setting [1]) was determined as 182 nM.

Turning to `CCCCCC(=O)NC(NC(=O)CCCCC)c1ccc(N(CC)CC)cc1` [Compound 53, N,N′-((4-(diethylamino)phenyl)methylene)dihexanamide], at CB2 receptor, the “SI: selectivity index for CB2” value is more than 800. The inhibition constant Ki on CB2 receptor (setting [1]) amounted to 25 nM.

Consider `O=C(Cc1ccc(Cl)cc1)NC(NC(=O)Cc1ccc(Cl)cc1)c1ccccc1F` [Compound 22, N,N′-((2-fluorophenyl)methylene)bis(2-(4-chlorophenyl)acetamide)], for which the Ki on CB2 receptor (setting [1]) turned out to be 10800 nM.

Regarding `COc1ccc(C(NC(=O)Cc2ccc(Cl)cc2)NC(=O)Cc2ccc(Cl)cc2)cc1` [Compound 26, N,N′-((4-methoxyphenyl)methylene)bis(2-(4-chlorophenyl)acetamide)], the “SI: selectivity index for CB2” value at CB2 receptor is reported as more than 65. The Ki on CB2 receptor (setting [1]) worked out at 310 nM.
